Results reported in PMC7725003, “Systematically Studying the Optimal Amino Acid Distribution Patterns of the Amphiphilic Structure by Using the Ultrashort Amphiphiles” (Frontiers in Microbiology, 2020).
Where no end group is shown, it is not given here.

Tests used:
B. subtilis 63501 = type: cell-based, Bacillus subtilis; settings: 63501, 24 h
In short: (§1)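 Broth microdilution adapted from NCCLS. Peptide series in 0.2% BSA meets an equal volume of MHB culture at 0.5–1 × 10^6 CFU mL^–1; 24 h incubation at 37°C; MIC read as 95% growth inhibition at 492 nm.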

[1] = test system: Listeria monocytogenes CGMCC 1.1075; type: cell-based; settings: CGMCC 1.1075, 24 h
In short: as §1

E. faecalis 29212 = type: cell-based, Enterococcus faecalis; settings: 29212, 24 h
In short: as §1

E. coli K99 = test system: E. coli K99
In short: (§2)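 Peptides were serially diluted in 0.2% BSA and added to mid-logarithmic cells diluted in MHB to 0.5–1 × 10^6 CFU mL^–1. Assays followed an adapted NCCLS protocol.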

E. coli K88 = test system: E. coli K88
In short: as §2

S. epidermidis 12228 = type: cell-based, Staphylococcus epidermidis; settings: 12228, 24 h
In short: as §1

S. aureus 29213 [2] = type: cell-based, Staphylococcus aureus; settings: 29213, 24 h
In short: as §1

S. aureus 25923 = type: cell-based, Staphylococcus aureus; settings: 25923, 24 h
In short: as §1

MRSA 43300 = type: cell-based, methicillin-resistant S. aureus; settings: 43300, 24 h
In short: as §1

Gram-negative bacteria [3] = settings: geometric mean of MBCs, 9 Gram-negative strains (Table 2)
E. coli UB1005 = type: cell-based, Escherichia coli; settings: UB1005, 24 h
In short: as §1

E. coli 25922 = type: cell-based, Escherichia coli; settings: 25922, 24 h
In short: as §1

E. coli O78 = type: cell-based, Escherichia coli; settings: O78, 24 h
In short: as §1

Gram-negative bacteria [4] = test system: Gram-negative bacteria
In short: (§3)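 MIC is the lowest peptide concentration giving 95% growth inhibition, read at 492 nm after 24 h incubation at 37°C. Peptides were serially diluted in 0.2% BSA and added to mid-logarithmic cells at 0.5–1 × 10^6 CFU mL^–1 in MHB, following a modified NCCLS method, with more than 3 repeats.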

Gram-positive bacteria [5] = test system: Gram-positive bacteria
In short: as §3

E. coli ATCC 25922 = assay: Salt sensitivity assay (MIC); type: cell-based, Escherichia coli
In short: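 Peptides diluted serially in 0.2% BSA solution were combined at identical volumes with mid-logarithmic E. coli ATCC 25922 in MHB (0.5–1 × 10^6 CFU mL^–1) in 96-well plates, with or without a physiological salt. Plates were incubated for 24 h at 37°C. MIC was the lowest concentration inhibiting 95% of growth, measured as absorbance at 492 nm on a microplate reader.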

S. typhimurium 14028 = type: cell-based, Salmonella typhimurium; settings: 14028, 24 h
In short: as §1

S. typhimurium 7731 = type: cell-based, Salmonella typhimurium; settings: 7731, 24 h
In short: as §1

Gram-positive bacteria [6] = settings: geometric mean of MBCs, 7 Gram-positive strains (Table 2)
S. aureus 29213 [7] = assay: Salt sensitivity assay (MIC); type: cell-based, Staphylococcus aureus
In short: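 Physiological salts (150 mM NaCl, 4.5 mM KCl, 6 μM NH4Cl, 8 μM ZnCl2, 1 mM MgCl2, 2mM CaCl2, 4 μM FeCl3) added to MHB. Bacteria at 0.5–1 × 10^6 CFU/mL exposed to serially diluted peptides for 24 h at 37°C. MIC read as lowest peptide concentration giving 95% growth inhibition by absorbance at 492 nm.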

P. aeruginosa 27853 = type: cell-based, Pseudomonas aeruginosa; settings: 27853, 24 h
In short: as §1

[8] = test system: all of the tested bacterial strains; assay: Geometric mean of MICs, all tested bacterial strains; type: cell-based
In short: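 Per strain, MIC came from absorbance at 492 nm after 24 h at 37°C (≥95% inhibition), using mid-log inoculum of 0.5–1 × 10^6 CFU mL^–1 in MHB and peptide diluted in 0.2% BSA. MBC (>99.9% killed) came from overnight agar plating, and values are geometric means across strains.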

S. pullorum 7913 = type: cell-based, Salmonella pullorum; settings: 7913, 24 h
In short: as §1

[9] = MHB, 24 h 37°C, 95% growth inhibition
[10] = value in brackets, >99.9% of cells killed
[11] = therapeutic index TI = MHC/GM MIC
[12] = no added salt, three independent assays

**Q.** Which results are given for RRLLLLRRL-NH2 [L7]?
**A.** MBC (B. subtilis 63501): 16 µM; MIC (B. subtilis 63501): 8 µM; MBC [1]: 32 µM; MIC [1]: 16 µM; MIC (E. faecalis 29212): > 64 µM; MIC (E. coli K99; [9]): 64 µM; MBC (E. coli K99; [10]): 128 µM; MIC (E. coli K88; [9]): 32 µM; MBC (E. coli K88; [10]): 64 µM; MIC (S. epidermidis 12228): > 64 µM; MIC (S. aureus 29213 [2]): >64 µM; MIC (S. aureus 25923): > 64 µM; MIC (MRSA 43300): >64 µM; GM MBC (Gram-negative bacteria [3]): 118.51 µM; MIC (E. coli UB1005): >64 µM; MIC (E. coli 25922): > 64 µM; MBC (E. coli O78): 128 µM; MIC (E. coli O78): 64 µM; GM MIC (Gram-negative bacteria [4]; geometric mean of MICs, 9 Gram-negative strains (Table 2)): 94.06 µM; TI, Gram-negative bacteria (Gram-negative bacteria [4]; [11]): 2.72; GM MIC (Gram-positive bacteria [5]; geometric mean of MICs, 7 Gram-positive strains (Table 2)): 64.00 µM; TI, Gram-positive bacteria (Gram-positive bacteria [5]; [11]): 4.00; MIC, FeCl3 (E. coli ATCC 25922; 4 μM FeCl3): > 64 µM; MIC, NH4Cl (E. coli ATCC 25922; 6 μM NH4Cl): > 64 µM; MIC, ZnCl2 (E. coli ATCC 25922; 8 μM ZnCl2): > 64 µM; MIC, MgCl2 (E. coli ATCC 25922; 1 mM MgCl2): > 64 µM; MIC, CaCl2 (E. coli ATCC 25922; 2 mM CaCl2): > 64 µM; MIC, KCl (E. coli ATCC 25922; 4.5 mM KCl): > 64 µM; MIC, NaCl (E. coli ATCC 25922; 150 mM NaCl): > 64 µM; MIC, Control (E. coli ATCC 25922; [12]): > 64 µM; MIC (S. typhimurium 14028): > 64 µM; MIC (S. typhimurium 7731): > 64 µM; GM MBC (Gram-positive bacteria [6]): 78.02 µM; MIC, FeCl3 (S. aureus 29213 [7]; 4 μM FeCl3): > 64 µM; MIC, NH4Cl (S. aureus 29213 [7]; 6 μM NH4Cl): > 64 µM; MIC, ZnCl2 (S. aureus 29213 [7]; 8 μM ZnCl2): > 64 µM; MIC, MgCl2 (S. aureus 29213 [7]; 1 mM MgCl2): > 64 µM; MIC, CaCl2 (S. aureus 29213 [7]; 2 mM CaCl2): > 64 µM; MIC, KCl (S. aureus 29213 [7]; 4.5 mM KCl): > 64 µM; MIC, NaCl (S. aureus 29213 [7]; 150 mM NaCl): > 64 µM; MIC, Control (S. aureus 29213 [7]; [12]): > 64 µM; MIC (P. aeruginosa 27853): > 64 µM; GM, All ([8]; geometric mean of MICs across all tested strains): 79.48 µM; TI, All [8, 11]: 3.22; MIC (S. pullorum 7913): >64 µM
